{"source": "patent US20130072404A1", "about": "“APPARATUS AND PROCESSES FOR GENERATING VARIABLE CONCENTRATION OF SOLUTES IN MICRODROPLETS” (UNIVERSITE DE STRASBOURG, priority 2009, published 2013)", "key": {"β-galactosidase [1]": {"molecular_target": "T1, β-galactosidase (Escherichia coli, UniProt P00722)", "parameters": "purchased Sigma-Aldrich Co", "settings": "Angenendt et al., 2004; read-out: IC50 literature value; cited from earlier work"}, "β-galactosidase [2]": {"molecular_target": "T1, β-galactosidase", "experiment": "Microplate dose-response assay, β-galactosidase (Example 2)", "format": "biochemical", "parameters": "purchased Sigma-Aldrich Co", "settings": "8-point microplate assay, n=10; read-out: IC50 obtained in microplate", "procedure": "For β-galactosidase, a solution of the inhibitor PETG was diluted to 200 μM in PBS and then further diluted in 3-fold serial dilution steps seven times (200 μM down to […]). 10 μl aliquots of each dilution were pipetted into the wells of a black, opaque 384-well plate (Corning, Inc., New York, USA). A stock of the substrate FDG was diluted to 240 μM in PBS and 10 μl aliquots were added to the wells. The reactions were initiated by adding 20 μl of 10 U/ml β-galactosidase, in PBS containing 2 g/l BSA, to each well. A SpectraMax M5 microplate reader (Molecular Devices, Inc., California, USA) was used to monitor the reactions at 25° C. with an excitation wavelength of 490 nm, an emission wavelength of 514 nm (automatic cut-off), and a 15 second period between measurements. The initial rate of each reaction was determined and the percentage inhibition of β-galactosidase activity was calculated by scaling this initial rate between a blank (no enzyme, equivalent to 100% inhibition) and a positive control (no inhibitor, equivalent to 0% inhibition) in the same manner as Eq. 1 (see above). When required, the 4-parameter Hill function was fitted to a plot of percentage inhibition against logged inhibitor concentration to determine the IC50 of PETG."}, "β-galactosidase [3]": {"molecular_target": "T1, β-galactosidase", "experiment": "High-resolution dose-response screening of β-galactosidase inhibition in droplets (Example 2), FDG substrate", "format": "biochemical, E. coli", "parameters": "purchased Grade VIII", "settings": "for IC50: 4-parameter Hill fit", "procedure": "PBS was pumped through the autosampler at a rate of 200 μl/hour. On-chip, this flow was combined with solutions of enzyme and substrate, both flowing at 100 μl/hour. The enzyme solution was 20 U/ml of E. coli Grade VIII β-galactosidase in PBS containing 4 g/l BSA. The substrate solution was 240 μM FDG and 400 nM sodium fluorescein in PBS. The combined aqueous flow was segmented into droplets by the oil/surfactant solution flowing at a rate of 400 μl/hour. The optical setup was positioned just before the delay line and individual droplets were discriminated by green fluorescence. The measurement at this point provided a “pseudo blank” (no enzyme activity, equivalent to 100% inhibition) for the inhibition calculations later on: droplets with zero activity were not observed to change fluorescence between production and any measurement point in the delay line (FIG. 17).\nThe optical setup was repositioned to the 30-second measurement point and the droplets were analyzed continuously. Meanwhile, the autosampler was used to load 1 μl from each well of a 96-well plate into the PBS stream running through the dispersion capillary. Each well contained 20 μl of 100 μM DY-682 in PBS, plus one of four different concentrations of the inhibitor 2-phenylethyl β-D-thiogalactoside (PETG; Invitrogen Corp., California, USA): 600 μM (“high”), 120 μM (“medium”), 24 μM (“low”), or zero. As each Gaussian-like pulse of DY-682 and PETG, mixed with the reaction components and segmented into droplets, arrived at the optical detector, a dose-response profile was recorded.\nOffline, a Python script was used to group the droplets in the front edge of each Gaussian-like pulse by injection (˜10,000 droplets); these droplets are referred to as the injection's “dose-response droplets”. 1 second's worth of droplets directly preceding each Gaussian-like pulse were also stored (˜800 droplets). The mean green fluorescence of these droplets provided the “control” value (0% inhibition) for the injection and this value was used with the pseudo blank value (corresponding to 100% inhibition) to calculate the percentage inhibition in the subsequent dose-response droplets. […] The corrected green signal was then used to calculate the proportion of inhibition (I) in each droplet using the following equation: […]\nwhere M is corrected measured fluorescence, B is the pseudo blank value, and C is the control value. In parallel, the NIR fluorescence signal for each droplet was used to calculate the concentration of co-injected compound. […]\nFor each of the 16 “medium” injections the quality of the assay was determined by calculating the Z-factor (Zhang et al., 1999)."}, "β-galactosidase [4]": {"molecular_target": "T1, β-galactosidase", "experiment": "Standard microplate assay (Example 1 comparison values)", "format": "biochemical", "parameters": "purchased Sigma-Aldrich Co", "settings": "read-out: IC50 of PETG measured in a standard microplate assay"}}, "note": "Like-named read-outs stand apart in the source and are kept apart here."}
{"smiles": "OC[C@H]1O[C@@H](SCCc2ccccc2)[C@H](O)[C@@H](O)[C@H]1O", "note": "[PETG, phenylethyl β-D-thiogalactopyranoside]", "values": [{"measurement": "IC50", "setting": "β-galactosidase [1]", "result": 3100, "unit": "nM"}, {"measurement": "IC50", "setting": "β-galactosidase [2]", "result": 2720, "unit": "nM"}, {"measurement": "inhibition", "setting": "β-galactosidase [3]; droplets containing 50 μM PETG", "result": 97.5, "unit": "%"}, {"measurement": "IC50", "setting": "β-galactosidase [3]; mean IC50, high (600 μM) injected PETG", "result": 1980, "unit": "nM"}, {"measurement": "IC50", "setting": "β-galactosidase [3]; mean IC50, low (24 μM) injected PETG", "result": 1980, "unit": "nM"}, {"measurement": "IC50", "setting": "β-galactosidase [3]; mean IC50, medium (120 μM) injected PETG, n=16", "result": 2060, "unit": "nM"}, {"measurement": "IC50", "setting": "β-galactosidase [4]", "result": 1430, "unit": "nM"}]}
